Measurements as given in ChEMBL document CHEMBL5625228, “Design, synthesis, and bioactivity evaluation of novel amide/sulfonamide derivatives as potential anti-inflammatory agents against acute lung injury and ulcerative colitis” (Eur J Med Chem, 2023).
Activity calls are given as the source filed them. No cut-off for these calls is given here.

Tests used:
[1] = tested on: J774.A1; test: Antiinflammatory activity against mouse J774.A1 cells assessed as inhibition of LPS-induced IL-6 production pretreated with compound for 30 mins followed by LPS induction and measured after 24 hrs by ELISA analysis; format: functional; settings: for inhibition (INH): time 1470 min, 24.5 h; for INH: test concentration or dose not given here
[2] = tested on: J774.A1; test: Antiinflammatory activity against mouse J774.A1 cells assessed as inhibition of LPS-induced TNF-alpha production pretreated with compound for 30 mins followed by LPS induction and measured after 24 hrs by ELISA analysis; format: functional; settings: for inhibition (INH): time 1470 min, 24.5 h; for INH: test concentration or dose not given here
[3] = tested on: J774.A1; test: Antiinflammatory activity against mouse J774.A1 cells assessed as inhibition of LPS-induced IL-6 release preincubated with compound for 30 mins followed by LPS-induction and measured after 24 hrs by ELISA analysis; format: functional, cell-based
[4] = tested on: J774.A1; test: Antiinflammatory activity against mouse J774.A1 cells assessed as inhibition of LPS-induced TNF-alpha release preincubated with compound for 30 mins followed by LPS-induction and measured after 24 hrs by ELISA analysis; format: functional, cell-based
[5] = tested on: J774.A1; test: Antiinflammatory activity against LPS-induced mouse J774.A1 cells assessed as effect on IL-6 mRNA level preincubated with compound for 30 mins followed by LPS-induction and measured after 6 hrs by qPCR analysis; format: functional, cell-based; settings: time 390.0 min
[6] = tested on: J774.A1; test: Antiinflammatory activity against LPS-induced mouse J774.A1 cells assessed as downregulation of IL-6 mRNA level preincubated with compound for 30 mins followed by LPS-induction and measured after 6 hrs by qPCR analysis; format: functional, cell-based; settings: time 390.0 min
[7] = tested on: J774.A1; test: Antiinflammatory activity against LPS-induced mouse J774.A1 cells assessed as downregulation of TNF-alpha mRNA level preincubated with compound for 30 mins followed by LPS-induction and measured after 6 hrs by qPCR analysis; format: functional, cell-based; settings: time 390.0 min

Row | Compound | inhibition (INH) [1] [%] | inhibition (INH) [2] [%] | other results
1 | O=S(=O)(CCN1CCN(Cc2ccccc2)CC1)Nc1ccc2ncccc2c1 | 43.09 | 9.54 | 
2 | COc1ccc(NS(=O)(=O)CCN2CCN(Cc3ccc([N+](=O)[O-])cc3)CC2)cn1 | 42.48 | 38.83 | 
3 | O=C(CCN1CCN(Cc2ccccc2)CC1)NCc1ccccn1 | 31 | 40.52 | 
4 | COc1ccc(CN2CCN(CC(=O)Nc3cccc4ccccc34)CC2)cc1 |  |  | inhibition ([1]; time 1470.0 min): inactive; inhibition ([2]; time 1470.0 min): inactive
5 | O=S(=O)(CCN1CCN(Cc2ccccc2)CC1)Nc1cccc2ccccc12 | 36.45 | 38.58 | 
6 | O=C(CN1CCN(Cc2ccccc2)CC1)NCc1ccccn1 | 23.3 | 40.91 | 
7 | O=S(=O)(CCN1CCN(c2ncccn2)CC1)Nc1ccc2ncccc2c1 | 23.7 | 5.34 | 
8 | COc1ccc(CN2CCN(CCS(=O)(=O)Nc3cccc4ccccc34)CC2)cc1 | 46.54 | 38.07 | 
9 | O=C(CN1CCN(c2ccc([N+](=O)[O-])cc2)CC1)NCc1ccccn1 | 49.31 | 57.51 | 
10 | O=[N+]([O-])c1cc(S(=O)(=O)NCc2ccccn2)ccc1N1CCN(Cc2ccccc2)CC1 | 69.3 | 50.22 | IC50 [3]: 4.94 µM; IC50 [4]: 10.1 µM; Activity [5]: inactive
11 | COc1ccc(NC(=O)CN2CCN(Cc3ccc([N+](=O)[O-])cc3)CC2)cn1 | 35.43 | 37.85 | 
12 | COc1ccc(NS(=O)(=O)CCN2CCN(c3ncccn3)CC2)cn1 | 42 | 37.77 | 
13 | COc1ccc(CN2CCN(CC(=O)Nc3ccc(OC)nc3)CC2)cc1 | 19.35 | 38.65 | 
14 | COc1ccc(NC(=O)CN2CCN(c3ccc([N+](=O)[O-])cc3)CC2)cn1 | 26.57 | 35.31 | 
15 | O=[N+]([O-])c1cc(S(=O)(=O)NCc2ccccn2)ccc1N1CCN(c2ncccn2)CC1 | 20.86 | 18.24 | 
16 | O=[N+]([O-])c1ccc(CN2CCN(c3ccc(S(=O)(=O)NCc4ccccn4)cc3[N+](=O)[O-])CC2)cc1 | 69.93 | 42.19 | IC50 [3]: 1.32 µM; IC50 [4]: 8.59 µM; Activity [6]: Active; Activity [7]: Active
17 | O=S(=O)(CCN1CCN(c2ncccn2)CC1)NCc1ccccn1 | 50.45 | 40.39 | 
18 | O=C(CN1CCN(c2ncccn2)CC1)NCc1ccccn1 | 40.7 | 38.32 | 
19 | COc1cc(-c2csc(NC(=O)CCN3CCN(Cc4cccc([N+](=O)[O-])c4)CC3)n2)ccc1O | 78.47 | 41.39 | 
20 | O=[N+]([O-])c1cccc(CN2CCN(CCS(=O)(=O)Nc3ccc4ncccc4c3)CC2)c1 | 54.36 | 23.97 | 
21 | O=C(CN1CCN(c2ccc([N+](=O)[O-])cc2)CC1)Nc1cccc2ccccc12 | 17.67 | 17.43 | 
22 | CC(=O)Nc1ncc(CN2CCN(c3ccc(S(=O)(=O)NCc4ccccn4)cc3[N+](=O)[O-])CC2)s1 | 40.3 | 31.13 | 
23 | O=S(=O)(CCN1CCN(c2ncccn2)CC1)Nc1cccc2ccccc12 | 10.6 | 12.33 | 
24 | COc1ccc(NS(=O)(=O)CCN2CCN(Cc3cccc([N+](=O)[O-])c3)CC2)cn1 | 30.6 | 34.88 | 
25 | O=[N+]([O-])c1cccc(CN2CCN(CCS(=O)(=O)NCc3ccccn3)CC2)c1 | 41.05 | 38.96 | 
26 | O=C(CN1CCN(c2ncccn2)CC1)Nc1cccc2ccccc12 | 9.078 | 18.5 | 
27 | O=S(=O)(CCN1CCN(Cc2ccccc2)CC1)NCc1ccccn1 | 54.87 | 43.92 | 
28 | COc1ccc(NC(=O)CN2CCN(Cc3ccccc3)CC2)cn1 | 9.69 | 34.1 | 
29 | CC(=O)Nc1ncc(CN2CCN(CC(=O)NCc3ccccn3)CC2)s1 | 19.68 | 36.32 | 
